# Laboratory results reported in patent US20050209299A1, “Inhibition of mixed lineage kinases and uses therefor” (University of Maryland, Baltimore, priority 2004, published 2005).
# Assays:
# HeLa cells [1] = test: Mitotic spindle immunostaining (α/γ-tubulin, DAPI) in synchronized HeLa cells; format: cell-based
# Procedure: (§1) In some experiments, cells were synchronized by double thymidine block as previously described (18-19). Briefly, cells were incubated for 16 hours with 2 mM thymidine in 10% FBS containing DMEM. The excess thymidine was washed off with Hanks Buffered Saline Solution (HBSS) and cells were released back into the cell cycle with complete medium. After 8 hours, cells were treated a second time with 2 mM thymidine in 10% FBS containing DMEM for another 16 hours to arrest cells at the G1/S-phase boundary. Synchronized cells were then washed with HBSS and released back into the cell cycle and harvested at various time points after G1/S release for analysis. Cell cycle analysis was done by fluorescence activated cell sorting (FACS) as described below.
# (§2) Cells grown on round glass coverslips in 6-centimeter plates were synchronized at the G1/S-phase boundary using excess thymidine as described in Example 4. At the indicated time after release back into the cell cycle, coverslips were fixed with 4% paraformaldehyde for 8 minutes and permeabilized with 0.1% Triton X-100 in PBS for 2 minutes. Cell staining patterns were confirmed in cells that were fixed and permeabilized with cold methanol for 10 minutes. Cells were stained with antibodies against MLK3, α-tubulin, cyclin B1, phospho-specific histone H3, or p62 nucleoporin followed by incubation with fluorescein or Texas Red conjugated secondary antibodies and counterstaining for cellular DNA with 4′,6-diamidino-2-phenylindole (DAPI, 0.2 μg/ml in PBS). Cells were identified using Nikon E800 Epi-fluorescence microscope (Image Systems, Columbia, Md.) and captured with a Hamamatsu CCD camera. Cell images were processed using IPlab software (Scanalytics, Fairfax, Va.).
# histone H3 = test: Phospho-histone H3 (serine 10) immunofluorescence in synchronized HeLa cells; format: cell-based
# Procedure: as §1, §2
# HeLa cells [2] = test: Cell proliferation assay (cell counting, trypan blue); format: cell-based; conditions: CEP-11004 500 nM, up to 72 hours, cell number
# Procedure: (§3) Following treatments cells were counted on a hemocytometer following trypsinization and staining with trypan blue (Sigma). Greater than 95% of the cells excluded trypan blue dye. Cell proliferation also was measured using a colony formation assay. […] Following incubation for 8-14 days, cells were fixed for 10 minutes in 4% paraformaldehyde and stained with 0.2% crystal violet (in 20% methanol) for 1-2 minutes. Cells were washed several times with distilled water and colonies formed (at least 40 cells/per colony) were counted.
# NIH 3T3 cells = test: as above; format: cell-based; conditions: CEP-11004 500 nM, up to 72 hours, cell number
# Procedure: as §3
# HeLa cells [3] = test: Mitotic index / mitotic stage assay (DAPI) in synchronized HeLa cells; format: cell-based
# Procedure: as §1
# Cells grown on coverslips were synchronized at the G1/S-phase boundary as described in Examples 4-5. In some cases, MLK3 was co-expressed with the pEGFP vector in order to identify transfected cells. […] At varying times after release, coverslips were fixed and cellular DNA was stained with DAPI. GFP-positive mitotic cells in prophase, prometaphase, metaphase, anaphase, or telophase were identified, counted, and expressed as a fraction of the total cells counted to determine the mitotic index. Within each experiment, 300 to 350 cells were counted for each condition and time point.
# HeLa cells [4] = test: FACS analysis of DNA content (cell cycle); format: cell-based
# Procedure: as §1
# Synchronized cells were trypsinized, washed with PBS, fixed with 3 ml of cold (−20° C.) 70% ethanol, and stored at 4° C. overnight. Cells then were incubated with 100 μg/ml propidium iodide (Sigma) dissolved in 0.2 M Tris, pH 7.5, 20 mM EDTA, 1 mg/ml RNase A (Sigma) for 1 hour at room temperature and diluted with an equal volume of PBS. DNA content was measured by flow cytometry (FACScan Analyzer, BD Biosciences) and was analyzed using the Sync Wizard Model, ModFit LT software (BD Biosciences). […]
# MLK3 [5] = target: T1, MLK3 (Homo sapiens, UniProt Q16584); test: MLK3 induced JNK phosphorylation in transfected cells (immunoblot); format: cell-based
# T1 construct: expressed in transfected cells; host or cells: HeLa
# Procedure: (§4) HeLa, NIH 3T3, HEK293, A549, or MRC-5 cells were grown in a DMEM supplemented with 10% fetal bovine serum (FBS) and penicillin (100 U/ml) and streptomycin (100 μg/ml). Estrogen receptor (ER) negative breast cancer cells, SUM-159, were obtained from the University of Michigan Human Breast Cancer Cell Lines (SUM-Lines) and grown in DMEM+10% FBS. In some experiments, cells were transfected with cDNA (1 μg) for pEGFP (BD Biosciences/Clontech, Palo Alto, Calif.), hemagglutinin (HA)-tagged MLK3, kinase dead mutant MLK3 (MLK3 K144R), GFP-tagged MLK2 (kindly provided by Dr. Donna Dorow), Flag-tagged DLK, or HA-tagged JNK1 using Lipofectamine® (Invitrogen, Carlsbad, Calif.). Transfected cells were harvested 16-24 hours after transfection.
# (§5) For protein analysis, cells were washed twice with cold phosphate buffered saline (PBS), lysed with 300 μl of tissue lysis buffer (TLB) (20 mM Tris-base, pH 7.4, 137 mM NaCl, 2 mM EDTA, 1% Triton X-100, 25 mM β-glycerophosphate, 2 mM sodium pyrophosphate, 10% glycerol, 1 mM sodium orthovanadate, 1 mM phenylmethysulfonyl fluoride (PMSF), and 1 mM benzamidine) and centrifuged at 20,000×g to clarify lysates. Approximately 20 μg of total protein was separated by SDS-PAGE. […] Immunoreactivity was detected by enhanced chemiluminescence (ECL; Amersham, Buckinghamshire, England).
# MLK3 [6] = target: T1, MLK3; test: MLK3 kinase assay (immunoprecipitated from treated transfected cells, MBP substrate); format: cell-based
# Procedure: Immunoprecipitated MLK3 was incubated for 45 min at 30° C. with kinase buffer containing 10 μCi γ-^32P ATP, 20 μM cold ATP, and 0.5 μg myelin basic protein (MBP) as a substrate. The reaction was quenched with 2×SDS sample buffer, separated by SDS-PAGE and transferred to PVDF membranes (Perkin Elmer, Boston, Mass.). Radioactive phosphate incorporation into MBP and MLK3 were analyzed by phosphorimager (Amersham Biosciences/Molecular Dynamics) and immunoblotting, respectively.
# MLK3 [7] = target: T1, MLK3; conditions: reference 11; cited from earlier work
# MKK1 = test: Constitutively active MKK1 induced ERK activation in transfected HeLa cells (ppERK immunoblot); format: cell-based; conditions: CEP-11004 500 nM
# Procedure: as §4, §5
# cyclin B1 = test: Cyclin B1 immunoblot in synchronized HeLa cells; format: cell-based
# Procedure: as §1
# For protein analysis, cells were washed twice with cold phosphate buffered saline (PBS), lysed with 300 μl of tissue lysis buffer (TLB) (20 mM Tris-base, pH 7.4, 137 mM NaCl, 2 mM EDTA, 1% Triton X-100, 25 mM β-glycerophosphate, 2 mM sodium pyrophosphate, 10% glycerol, 1 mM sodium orthovanadate, 1 mM phenylmethysulfonyl fluoride (PMSF), and 1 mM benzamidine) and centrifuged at 20,000×g to clarify lysates. Approximately 20 μg of total protein was separated by SDS-PAGE. Proteins were transferred to PVDF membrane (Perkin Elmer Life Sciences; Boston, Mass.), blocked for 1-2 hours with 5% nonfat dry milk in Tris-buffered saline (TBS) (50 mM Tris-base, pH 7.4, 0.15 M NaCl, and 0.1% Tween-20) and incubated with the primary antibodies in TBS containing 1% BSA solution for 1 to 16 hours. Membranes were washed several times in TBS-Tween solution and incubated with HRP conjugated anti-mouse or anti-rabbit antibodies (0.1 μg/ml). Immunoreactivity was detected by enhanced chemiluminescence (ECL; Amersham, Buckinghamshire, England).
# Cdc2 = Cdc2 kinase activity (immunoprecipitated, histone substrate) in synchronized HeLa cells; format: cell-based
# Procedure: as §1
# Cdc2 was immunoprecipitated from cell lysates by incubating with Cdc2 antibody (0.5 μg) for 2 hours on ice. The lysates then were incubated with protein G-sepharose with mixing at 4° C. for an additional 2 hours. The immune-complex was washed with cold kinase buffer and incubated for 30 min at 30° C. with kinase buffer containing 10 μCi γ-^32P ATP, 20 μM cold ATP, and 2.5 μg histone (Type III-SS, Sigma) as a substrate. The reactions were stopped with SDS-PAGE sample buffer and the proteins were resolved by SDS-PAGE. Incorporation of ^32P into histone was determined by phosphorimager analysis.
# HEK293 cells = test: FACS analysis of DNA content (cell cycle); format: cell-based; conditions: treated for 20 hours; indicative of arrest in G2 or M-phase
# Procedure: Synchronized cells were trypsinized, washed with PBS, fixed with 3 ml of cold (−20° C.) 70% ethanol, and stored at 4° C. overnight. Cells then were incubated with 100 μg/ml propidium iodide (Sigma) dissolved in 0.2 M Tris, pH 7.5, 20 mM EDTA, 1 mg/ml RNase A (Sigma) for 1 hour at room temperature and diluted with an equal volume of PBS. DNA content was measured by flow cytometry (FACScan Analyzer, BD Biosciences) and was analyzed using the Sync Wizard Model, ModFit LT software (BD Biosciences). To determine the percentage of G1, S and G2/M-phase cells, the settings for 2N and 4N peaks were defined within each experiment from the G1/S arrested cells and applied to all samples within a given experiment.
# MLK3 [8] = target: T1, MLK3; test: MLK3-induced ERK activation in transfected HeLa cells (ppERK immunoblot); format: cell-based; conditions: CEP-11004 500 nM
# Procedure: as §4, §5
# [9] = tested on: A549 airway epithelia carcinoma cell; test: Colony formation assay; format: cell-based; conditions: varying doses, 14 days, crystal violet
# Procedure: as §3
# ERK pathway = conditions: neuronal cells, reported (12); cited from earlier work
# [10] = treated at end of S-phase for 4 hours
# [11] = 400 nM, added 5 hours after release
# [12] = 11 and 13 hours after G1/S-phase release, vs untreated
# T1 sequence (Q16584 whole entry): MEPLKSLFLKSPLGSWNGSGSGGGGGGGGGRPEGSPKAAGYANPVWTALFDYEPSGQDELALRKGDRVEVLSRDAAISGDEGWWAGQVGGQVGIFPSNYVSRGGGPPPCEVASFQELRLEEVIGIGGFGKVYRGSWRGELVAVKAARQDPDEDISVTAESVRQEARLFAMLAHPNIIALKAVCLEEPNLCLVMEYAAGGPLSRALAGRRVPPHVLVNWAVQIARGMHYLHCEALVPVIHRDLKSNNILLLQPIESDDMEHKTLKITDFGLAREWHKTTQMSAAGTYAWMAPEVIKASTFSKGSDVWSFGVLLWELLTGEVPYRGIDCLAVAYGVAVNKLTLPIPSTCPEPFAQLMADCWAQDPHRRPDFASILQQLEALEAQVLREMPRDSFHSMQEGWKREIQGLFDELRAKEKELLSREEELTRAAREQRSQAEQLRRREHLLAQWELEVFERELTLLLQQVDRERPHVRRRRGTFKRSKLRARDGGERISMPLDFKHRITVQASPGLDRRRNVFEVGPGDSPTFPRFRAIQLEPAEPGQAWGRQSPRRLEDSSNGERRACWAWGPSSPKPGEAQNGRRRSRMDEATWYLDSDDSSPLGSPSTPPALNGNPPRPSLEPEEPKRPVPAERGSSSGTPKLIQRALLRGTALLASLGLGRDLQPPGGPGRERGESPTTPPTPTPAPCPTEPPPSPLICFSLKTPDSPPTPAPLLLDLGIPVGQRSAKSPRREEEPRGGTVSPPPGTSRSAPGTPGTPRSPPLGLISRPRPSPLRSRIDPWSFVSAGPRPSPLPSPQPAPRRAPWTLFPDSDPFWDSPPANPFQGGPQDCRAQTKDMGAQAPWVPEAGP
molecule,measurement,setting,value
"3,9-bis-[(isopropylthio)methyl]-(8R*,9S*, 11S*)-(−)-9-hydroxy-9-methoxycarbonyl-8-methyl-2,3,9,10-tetrahydro-8,11-epoxy-1H,8H,11H-2,7b,11a-triazadibenzo(a,g)cycloocta(cde)trinden-1-one [CEP-11004]",chromosome organization (DAPI),HeLa cells [1]; [10],highly disorganized
same,microtubule organization (α-tubulin) in mitotic cells,HeLa cells [1]; [10],significant disruption
same,mitotic cells with aberrant microtubule organization,HeLa cells [1]; [10],Greater than 60%
same,number of spindle poles (γ-tubulin),HeLa cells [1]; [10],no effect
same,microtubules of interphase cells,"HeLa cells [1]; treated for 4 hours, data not shown",no apparent effects
same,nuclear pH3 staining during prophase,"histone H3; added 5 hours after G1/S release, additional 4 hours",did not contain nuclear pH3 staining
same,pH3 staining after NEB in pro-metaphase,histone H3; both untreated and treated cells,readily apparent
same,lowest dose with inhibited pH3 staining in early mitotic cells,histone H3; data not shown,200 nM
same,pH3 staining in early mitosis before NEB,histone H3; p62 nucleoporin co-staining,not observed
same,HeLa cell proliferation,HeLa cells [2],inhibited
same,proliferation of NIH 3T3 cells,NIH 3T3 cells,unaffected
same,cells in metaphase or anaphase/telophase at 9 hours after G1/S,HeLa cells [3]; [11],not evident
same,mitotic stage at 11 hours after G1/S release,HeLa cells [3]; [11],primarily accumulated in pro-metaphase
same,pro-metaphase cells at 9 hours after G1/S,"HeLa cells [3]; 400 nM, added 5 hours after release, vs untreated",accumulation of pro-metaphase cells
same,concentrations at which mitotic arrest occurs,"HeLa cells [3]; as low as, FIGS. 6A-6C",100 to 200 nM
same,percentage of pro-metaphase cells vs concentration,HeLa cells [3]; various concentrations for 8 hours (13 hours after G1/S release),dose-dependent increase
same,cell cycle progression in synchronized HeLa cells (4N DNA),"HeLa cells [4]; added 5 hours after G1/S release, 11 and 13 hours after release",arrest in G2 or M-phase
same,"DNA content by FACS, HeLa cells","HeLa cells [4]; treated for 20 hours, indicative of arrest in G2 or M-phase",accumulated 4N DNA
same,inhibition of MLK3 induced JNK1 phosphorylation,"MLK3 [5]; 100 nM CEP-11004, HA-MLK3 + HA-JNK1 co-expressed",80%
same,MLK3 induced JNK phosphorylation,"MLK3 [5]; CEP-11004 500 nM, 4 hours, transfected cells",inhibited MLK3
same,expressed MLK3 activity (MBP phosphorylation),"MLK3 [6]; HA-MLK3 in HeLa cells, CEP-11004 500 nM, 4 hours",significantly inhibited
same,MLK3 activity during G2 and M-phase transitions,MLK3 [6]; data not shown,blocked
same,specificity towards MLK3 as compared to MLK2,MLK3 [7],approximately 3 fold
same,activity of MKK1 (non-MLK related protein kinase),MKK1,does not affect
same,cyclin B1 expression in synchronized HeLa cells,cyclin B1; [12],sustained cyclin B1 expression
same,cyclin B1 levels in mock transfected cells,"cyclin B1; 100 or 200 nM CEP-11004, 8 hours",elevated
same,cyclin B1 levels in MLK3 transfected cells,"cyclin B1; 100 or 200 nM, vs mock transfected",lower cyclin B1 levels
same,Cdc2 kinase activity in synchronized HeLa cells,Cdc2; [12],elevated Cdc2 kinase activity
same,Cdc2 activity in mock transfected vs MLK3 transfected cells,Cdc2; 100 or 200 nM CEP-11004,higher Cdc2 activity
same,"DNA content by FACS, HEK293 cells",HEK293 cells,accumulated 4N DNA
same,MLK3-induced ERK activation,MLK3 [8],inhibited
same,A549 colony formation,[9],dose dependent inhibition
"CCSCc1ccc2c(c1)c1c3c(c4c5cc(CSCC)ccc5n5c4c1n2[C@H]1C[C@](O)(C(=O)OC)[C@]5(C)O1)CNC3=O (relative stereo) [CEP-1347, 3,9-bis[(ethylthio)methyl]-(8R*,9S*,11-S*)-(−)-9-hydroxy-9-methoxycarbonyl-8-methyl 2,3,9,10-tetrahydro-8,11-epoxy-1H,8H, 11H-2,7b,11a-triazadibenzo(a,g)cycloocta(cde)trinden-1-one]",effect on the ERK pathway,ERK pathway,activate the ERK pathway
